Tested on: Metabolic Syndrome cases
Test: Clinical study in Metabolic Syndrome cases
Type: in vivo, human
Experimental: The study population consisted of 128 diagnosed Metabolic Syndrome cases (76 Men and 52 Women), aged 52.81±9.68 years at study entry. The cases were diagnosed as per criteria given by WHO for classification and diagnosis of Metabolic Syndrome. After preliminary screening the subjects showing association with 3 or more than 3 above factors were selected. The clinical trial was conducted in three groups— Group-I: 36 cases were treated with Orlistat (120 mg twice a day after each meals). Group-II: 44 cases were treated with Ayurvedic formulation. Group-III: 48 cases were administered Orlistat along with Ayurvedic formulation. […] Lipid profile including triglyceride was estimated by standard laboratory kits. TNF-[…], interleukin-6 was measured by ELISA kit, adiponectin by radioimmunoassay kit. CRP by kit for quantitative nephelometric determination of CRP in human serum or plasma by Turbox/Turbox analyzer and ELISA activity assay kit for Leptin level. Subjects suffering from any other disease known to affect the study parameters were excluded from the series. Upon recruitment all subjects gave informed written consent.

CCCCCCCCCCC[C@@H](C[C@@H]1OC(=O)[C@H]1CCCCCC)OC(=O)[C@H](CC(C)C)NC=O [Conventional drug, Orlistat]
Adiponectin (After 6 months): 10.04 ± 2.84 µg/mL
Apolipo (B) (After 6 months): 156.41 ± 17.11 mg/dL
Diastolic blood pressure (After 6 months): 84.42 ± 1.98 mmHg
Endotheline (After 6 months): 875.42 ± 171.36 pg/mL
Fasting blood glucose (After 6 months): 99.43 ± 4.36 mg/dL
HDL-c (After 6 months): 50.75 ± 3.12 mg/dL
Interleukin-6 (After 6 months): 1.89 ± 0.75 pg/mL
LDL-c (After 6 months): 109.42 ± 8.44 mg/dL
Leptin (After 6 months): 26.44 ± 3.28 µg/L
Postprandial blood glucose (After 6 months): 186.90 ± 17.42 mg/dL
Systolic blood pressure (After 6 months): 126.90 ± 4.06 mmHg
TNF-α (After 6 months): 324.85 ± 57.86 pg/mL
Total cholesterol (After 6 months): 208.91 ± 27.97 mg/dL
Triglycerides (After 6 months): 224.56 ± 37.90 mg/dL
hs CRP (After 6 months): 3.48 ± 0.89 mg/L
Body Mass Index (BMI) (Female, After 3 months): 29.68 ± 2.04
Body Mass Index (BMI) (Female, After 6 months): 28.45 ± 1.68
Body Mass Index (BMI) (Female, Initial): 31.14 ± 1.88
Adiponectin (Initial): 7.82 ± 1.64 µg/mL
Apolipo (B) (Initial): 193.88 ± 31.64 mg/dL
Diastolic blood pressure (Initial): 88.35 ± 2.06 mmHg
Endotheline (Initial): 1139.73 ± 211.54 pg/mL
Fasting blood glucose (Initial): 133.90 ± 8.82 mg/dL
HDL-c (Initial): 43.84 ± 2.42 mg/dL
Interleukin-6 (Initial): 2.35 ± 0.84 pg/mL
LDL-c (Initial): 143.71 ± 9.13 mg/dL
Leptin (Initial): 33.41 ± 4.35 µg/L
Postprandial blood glucose (Initial): 224.81 ± 20.14 mg/dL
Systolic blood pressure (Initial): 137.82 ± 5.15 mmHg
TNF-α (Initial): 579.84 ± 68.36 pg/mL
Total cholesterol (Initial): 243.84 ± 41.52 mg/dL
Triglycerides (Initial): 371.90 ± 43.88 mg/dL
hs CRP (Initial): 5.31 ± 1.04 mg/L
Body Mass Index (BMI) (Male, After 3 months): 28.82 ± 1.90
Body Mass Index (BMI) (Male, After 6 months): 27.16 ± 1.35
Body Mass Index (BMI) (Male, Initial): 30.75 ± 2.17

— patent US9642886B2, “Plant based formulation for the prevention and management of metabolic syndrome by its adiponectin enhancing property” (SRM UNIVERSITY, priority 2014, dated 2017)
